In patent publication US4386077A (Made Italiana s.r.l, priority 1981, dated 1983):

Experiments:
[1] = Serum kinetics and absolute bioavailability of ^14 C-labelled CDP-choline and "ASONIC" after i.v. and oral administration in Cynomolgus monkeys; type: in vivo, Cynomolgus monkey; details: for Absolute bioavailability F: oral
Description: From the end of the curves serum concentration/time, it was possible to calculate the constant of the apparent elimination speed from the organism as well as the relative half-life. These values were utilized in calculating the AUC T30 hours →T.infin. for the total of the curves concentration/time in the same animal. The AUC To →T30 hrs was calculated by means of the trapezium methods. […] For each dosage, a randomized cross-over procedure was used. Seriated blood samples were collected until 30 hours after each administration. From the single curves concentration/time it was possible to calculate the AUC To →T30 hrs. After each administration, including the intravenous one, urine was collected at the following time intervals: 0-24 hours, 24-48 hours and 48-72 hours.

[2] = Cumulative urinary elimination in Cynomolgus monkeys; type: in vivo, Cynomolgus monkey
Description: Blood was collected at the following time: 0 (basal values) and 5, 10, 15, 30, 60 minutes, 2, 4, 7, 24 and 30 hours after the administration. From the end of the curves serum concentration/time, it was possible to calculate the constant of the apparent elimination speed from the organism as well as the relative half-life. These values were utilized in calculating the AUC T30 hours →T.infin. for the total of the curves concentration/time in the same animal. The AUC To →T30 hrs was calculated by means of the trapezium methods. […] For each dosage, a randomized cross-over procedure was used. Seriated blood samples were collected until 30 hours after each administration. From the single curves concentration/time it was possible to calculate the AUC To →T30 hrs. After each administration, including the intravenous one, urine was collected at the following time intervals: 0-24 hours, 24-48 hours and 48-72 hours.

[3] = oral, compound as such; cited from earlier work

C[N+](C)(C)CCOP(=O)(O)OP(=O)([O-])OC[C@H]1O[C@@H](n2ccc(N)nc2=O)[C@H](O)[C@@H]1O [CDP-choline, cytidine diphosphocholine]
Serum concentration ([1]; monkey no. 2, 25 mg/kg i.v., 60'): 2625 DPM/ml
Serum concentration ([1]; monkey no. 2, 25 mg/kg i.v., 2 hr): 2630 DPM/ml
Serum concentration ([1]; monkey no. 2, 25 mg/kg i.v., 4 hr): 3369 DPM/ml
Serum concentration ([1]; monkey no. 2, 25 mg/kg i.v., 7 hr): 4013 DPM/ml
Serum concentration ([1]; monkey no. 2, 25 mg/kg i.v., 24 hr): 2258 DPM/ml
Serum concentration ([1]; monkey no. 2, 25 mg/kg i.v., 30 hr): 2145 DPM/ml
Serum concentration ([1]; monkey no. 2, 200 mg/kg per os, 15'): 61 DPM/ml
Serum concentration ([1]; monkey no. 2, 200 mg/kg per os, 45'): 59 DPM/ml
Serum concentration ([1]; monkey no. 2, 200 mg/kg per os, 60'): 94 DPM/ml
Serum concentration ([1]; monkey no. 2, 200 mg/kg per os, 7 hr): 696 DPM/ml
Serum concentration ([1]; monkey no. 2, 200 mg/kg per os, 9 hr): 595 DPM/ml
Serum concentration ([1]; monkey no. 2, 200 mg/kg per os, 24 hr): 417 DPM/ml
Serum concentration ([1]; monkey no. 2, 200 mg/kg per os, 30 hr): 303 DPM/ml
Serum concentration ([1]; monkey no. 2, 400 mg/kg per os, 60'): 69 DPM/ml
Serum concentration ([1]; monkey no. 2, 400 mg/kg per os, 90'): 52 DPM/ml
Serum concentration ([1]; monkey no. 2, 400 mg/kg per os, 2 hr): 81 DPM/ml
Serum concentration ([1]; monkey no. 2, 400 mg/kg per os, 3 hr): 174 DPM/ml
Serum concentration ([1]; monkey no. 2, 400 mg/kg per os, 4 hr): 495 DPM/ml
Serum concentration ([1]; monkey no. 2, 400 mg/kg per os, 6 hr): 1.401 DPM/ml
Serum concentration ([1]; monkey no. 2, 400 mg/kg per os, 7 hr): 2.560 DPM/ml
Serum concentration ([1]; monkey no. 2, 400 mg/kg per os, 8 hr): 4.235 DPM/ml
Serum concentration ([1]; monkey no. 2, 400 mg/kg per os, 9 hr): 4.450 DPM/ml
Serum concentration ([1]; monkey no. 2, 400 mg/kg per os, 24 hr): 449 DPM/ml
Serum concentration ([1]; monkey no. 2, 400 mg/kg per os, 30 hr): 401 DPM/ml
Absolute bioavailability ([1]; monkeys, oral control dosages): much lower
Absolute bioavailability F ([1]; monkeys, 200 mg/kg as CDP-choline): 0.2143
Absolute bioavailability F ([1]; monkeys, 400 mg/kg as CDP-choline): 0.6174
Cumulative urinary elimination ([2]; average and S.D. of 2 monkeys, 25 mg/kg i.v., 0-24 hr): 50.65 ± 2.33 % OF THE ADMINISTERED DOSE
Cumulative urinary elimination ([2]; average and S.D. of 2 monkeys, 25 mg/kg i.v., 0-72 hr): 53.5 ± 3.25 % OF THE ADMINISTERED DOSE
Cumulative urinary elimination ([2]; average and S.D. of 2 monkeys, 25 mg/kg i.v., 24-48 hr): 2.5 ± 0.99 % OF THE ADMINISTERED DOSE
Cumulative urinary elimination ([2]; average and S.D. of 2 monkeys, 25 mg/kg i.v., 48-72 hr): 0.35 ± 0.07 % OF THE ADMINISTERED DOSE
Cumulative urinary elimination ([2]; average and S.D. of 2 monkeys, 200 mg/kg per os, 0-24 hr): 42.75 ± 6.15 % OF THE ADMINISTERED DOSE
Cumulative urinary elimination ([2]; average and S.D. of 2 monkeys, 200 mg/kg per os, 0-72 hr): 47.5 ± 3.11 % OF THE ADMINISTERED DOSE
Cumulative urinary elimination ([2]; average and S.D. of 2 monkeys, 200 mg/kg per os, 24-48 hr): 4.2 ± 2.83 % OF THE ADMINISTERED DOSE
Cumulative urinary elimination ([2]; average and S.D. of 2 monkeys, 200 mg/kg per os, 48-72 hr): 0.55 ± 0.21 % OF THE ADMINISTERED DOSE
Cumulative urinary elimination ([2]; average and S.D. of 2 monkeys, 400 mg/kg per os, 0-24 hr): 31.3 ± 9.3 % OF THE ADMINISTERED DOSE
Cumulative urinary elimination ([2]; average and S.D. of 2 monkeys, 400 mg/kg per os, 0-72 hr): 37.65 ± 8.98 % OF THE ADMINISTERED DOSE
Cumulative urinary elimination ([2]; average and S.D. of 2 monkeys, 400 mg/kg per os, 24-48 hr): 5.6 ± 0.56 % OF THE ADMINISTERED DOSE
Cumulative urinary elimination ([2]; average and S.D. of 2 monkeys, 400 mg/kg per os, 48-72 hr): 0.75 ± 0.21 % OF THE ADMINISTERED DOSE
Cumulative urinary elimination ([2]; monkey no. 1, 25 mg/kg i.v., 0-24 hr): 49 % OF THE ADMINISTERED DOSE
Cumulative urinary elimination ([2]; monkey no. 1, 25 mg/kg i.v., 0-72 hr): 51.2 % OF THE ADMINISTERED DOSE
Cumulative urinary elimination ([2]; monkey no. 1, 25 mg/kg i.v., 24-48 hr): 1.8 % OF THE ADMINISTERED DOSE
Cumulative urinary elimination ([2]; monkey no. 1, 25 mg/kg i.v., 48-72 hr): 0.4 % OF THE ADMINISTERED DOSE
Cumulative urinary elimination ([2]; monkey no. 1, 200 mg/kg per os, 0-24 hr): 38.4 % OF THE ADMINISTERED DOSE
Cumulative urinary elimination ([2]; monkey no. 1, 200 mg/kg per os, 0-72 hr): 45.3 % OF THE ADMINISTERED DOSE
Cumulative urinary elimination ([2]; monkey no. 1, 200 mg/kg per os, 24-48 hr): 6.2 % OF THE ADMINISTERED DOSE
Cumulative urinary elimination ([2]; monkey no. 1, 200 mg/kg per os, 48-72 hr): 0.7 % OF THE ADMINISTERED DOSE
Cumulative urinary elimination ([2]; monkey no. 1, 400 mg/kg per os, 0-24 hr): 24.7 % OF THE ADMINISTERED DOSE
Cumulative urinary elimination ([2]; monkey no. 1, 400 mg/kg per os, 0-72 hr): 31.3 % OF THE ADMINISTERED DOSE
Cumulative urinary elimination ([2]; monkey no. 1, 400 mg/kg per os, 24-48 hr): 6.0 % OF THE ADMINISTERED DOSE
Cumulative urinary elimination ([2]; monkey no. 1, 400 mg/kg per os, 48-72 hr): 0.6 % OF THE ADMINISTERED DOSE
Cumulative urinary elimination ([2]; monkey no. 2, 25 mg/kg i.v., 0-24 hr): 52.3 % OF THE ADMINISTERED DOSE
Cumulative urinary elimination ([2]; monkey no. 2, 25 mg/kg i.v., 0-72 hr): 55.8 % OF THE ADMINISTERED DOSE
Cumulative urinary elimination ([2]; monkey no. 2, 25 mg/kg i.v., 24-48 hr): 3.2 % OF THE ADMINISTERED DOSE
Cumulative urinary elimination ([2]; monkey no. 2, 25 mg/kg i.v., 48-72 hr): 0.3 % OF THE ADMINISTERED DOSE
Cumulative urinary elimination ([2]; monkey no. 2, 200 mg/kg per os, 0-24 hr): 47.1 % OF THE ADMINISTERED DOSE
Cumulative urinary elimination ([2]; monkey no. 2, 200 mg/kg per os, 0-72 hr): 49.7 % OF THE ADMINISTERED DOSE
Cumulative urinary elimination ([2]; monkey no. 2, 200 mg/kg per os, 24-48 hr): 2.2 % OF THE ADMINISTERED DOSE
Cumulative urinary elimination ([2]; monkey no. 2, 200 mg/kg per os, 48-72 hr): 0.4 % OF THE ADMINISTERED DOSE
Cumulative urinary elimination ([2]; monkey no. 2, 400 mg/kg per os, 0-24 hr): 37.9 % OF THE ADMINISTERED DOSE
Cumulative urinary elimination ([2]; monkey no. 2, 400 mg/kg per os, 0-72 hr): 44.0 % OF THE ADMINISTERED DOSE
Cumulative urinary elimination ([2]; monkey no. 2, 400 mg/kg per os, 24-48 hr): 5.2 % OF THE ADMINISTERED DOSE
Cumulative urinary elimination ([2]; monkey no. 2, 400 mg/kg per os, 48-72 hr): 0.9 % OF THE ADMINISTERED DOSE
Absorbability [3]: poor absorbability
